According to patent publication US9486502B2, “Methods of administering interferon gamma to absorb fluid from the subretinal space” (The United States of America, as represented by the …, priority 2008, dated 2016):

Tests used:
hfRPE cells [1] = test: wound healing assay, hfRPE migration; type: cell-based, human; details: 48 hours, proliferation suppressed with mitomycin C
Protocol: The wound healing assay was used to study the effects of inflammatory cytokines on hfRPE cell migration, as described previously in Li, R., et al. Invest Ophthalmol Vis Sci, 2007, 48, 5722-5732, incorporated herein by reference in its entirety. Cell proliferation was suppressed by incubation with 10 μg/ml mitomycin C (Sigma) for 2 hours before all migration experiments. A circular denuded area (7 mm in diameter) was made in each well using a custom designed cell scraper. After incubation with various inflammatory cytokines for 48 hours, cells were fixed with cold methanol and stained with ethidium homodimer-1 (EthD-1, Invitrogen) according to the manufacturer's instructions. Cell migration was quantified by counting the average number of cells that migrated into the denuded area in 16 microscope fields surrounding the circumference of the denuded area. Each condition was tested in triplicate and repeated using cells from different donors.

hfRPE cells [2] = test: BrdU incorporation assay, hfRPE proliferation; type: cell-based, human; details: for effect on hfRPE proliferation (BrdU incorporation): 0.5-80 ng/ml; for effect on the IFNγ effect on hfRPE proliferation: added one hour prior to IFNγ
Protocol: BrdU incorporation was performed as described in Li, R. et al., 2007, Invest Ophthalmol Vis Sci, 48, 5722-5732, incorporated by reference in its entirety herein. IFNγ, TNFα, and IL-1β were obtained from Peprotech, Rocky Hill, N.J., and Universal Type I Interferon (cat: 11200-1) or human interferon beta la were from PBL biomedical laboratories (New Brunswick, N.J.). Cumulative effects were measured by adding VEGF165, EGF and bFGF (Peprotech), and PDGF-BB (R & D Systems) with IFNγ. Anti-human IFNγ R1 blocking antibody (R & D Systems, Minneapolis, Minn.), JAK inhibitor I, AG490, or JAK3 inhibitor II (EMD Biosciences, Gibbstown, N.J.) was added to the cells one hour prior to the addition of IFNγ. SFM was used as the negative control and SFM supplemented with 5% serum was used as positive control. After treatment for 48 hours, RPE cells were incubated with BrdU for 24 hours. The proliferation rate was evaluated using a Cell proliferation ELISA BrdU Kit (Roche, Ind.). Quadruplicate wells were used for each condition and the experiments were repeated at least two times using cell cultures from different donors. Cell viability was evaluated using a Live/Dead Viability/Cytotoxicity Kit (Invitrogen).

hfCHC cells = test: BrdU incorporation assay, human fetal choroidal cell proliferation; type: cell-based
hfRPE monolayers [3] = test: fluid transport (JV, TEP, RT) across hfRPE monolayers in modified Üssing chamber; type: cell-based, human; details: for effect on the effects of IFNγ on JV: Rp-8-Br-cAMPS 2 μM pretreatment; for effect on JV after P38 MAPK inhibitor: CFTR inhibitor added to basal bath after P38 MAPK inhibitor
Excerpt: Confluent monolayers of hfRPE cultured on transwells were mounted in a modified Üssing chamber and transepithelial water flow measurements (JV) were made with a capacitance probe technique as described previously in Maminishkis, A., et al., Invest Ophthalmol Vis Sci, 2006, 47, 3612-3624; Shi, G., et al., Invest Ophthalmol Vis Sci, 2008, 49, 4620-4630; Edelman, J. L., et al., Invest Ophthalmol Vis Sci, 1991, 32, 3033-3040; Jiang, C., et al., Science, 1993, 262, 424-427; and Maminishkis, A., et al., Invest Ophthalmol Vis Sci, 2002, 43, 3555-3566, each incorporated herein by reference in its entirety.
Tissue viability was ascertained by recording transepithelial potential (TEP) and total tissue resistance (RT). It should be noted that the solution composition changes in this chamber were relatively slow (≈1-2 chamber volumes per minute) and the data sampling rate was once per minute, more than two orders of magnitude slower than the sampling rate in the electrophysiology chamber (see below). Therefore it was not possible to record fast changes, in seconds or minutes, in JV, TEP, or RT. After addition of IFNγ to the apical or basal baths, steady-state JV, TEP, and RT were recorded for 20-30 minutes. In control experiments, successive additions of IFNγ were made to test for the repeatability and reversibility of responses. To block IFNγ effects, RPE cells were incubated for 30-60 minutes with a blocking antibody against IFNγ R1, JAK inhibitor I, PKA inhibitors (H-89, EMD Biosciences; RP-8-Br-cAMPS, Sigma-Aldrich), nitric oxide synthase inhibitor (aminoguanidine hydrochloride, Sigma-Aldrich), P38 MAPK inhibitors (SB203580 or SB20290), or CHX. Other components of this signaling pathway were studied using P38 MAPK inhibitors (SB203580 and SB202190). Relatively specific Cl channel inhibitors, CFTRinh-172 or DIDS (EMD Biosciences, La Jolla, Calif.), were used to block cAMP or Ca^2+-activated Cl channels; experiments with CFTRinh-172 were performed as described in Muanprasat, C., et al., J Gen Physiol, 2004, 124, 125-137, incorporated herein by reference in its entirety. In chronic experiments, paired hfRPE tissues with matched RT values were incubated for 4-24 hours with IFNγ or CHX. The subsequent changes in JV, RT, and TEP were measured in Ringer's solution or serum free cell culture media as previously described in Shi, G., et al., Invest Ophthalmol Vis Sci, 2008 and Maminishkis, A., et al., Invest Ophthalmol Vis Sci, 2006, 47, 3612-3624, each incorporated herein by reference in its entirety. Intracellular levels of NO were elevated with 1-Hydroxy-2-oxo-3-(3-aminopropyl)-3-isopropyl-1-triazene (NOC-5, Enzo Life Sciences, Plymouth, Pa.). 8-Br-cGMP was purchased from Sigma-Aldrich.

rat RPE = test: in vivo retinal re-attachment assay (OCT)
Protocol: All animal experiments were conducted in compliance with the ARVO Statement for the use of Animals in Ophthalmic and Vision Research, and the protocol was approved by the Animal Care and Use Committee of the National Institutes of Health. The procedures have been described in detail in Maminishkis, A., et al., Invest Ophthalmol Vis Sci, 2006, 47, 3612-3624, incorporated by reference in its entirety herein. Briefly, retinal detachments were created in long-Evans rats by injecting 0.5 to 3 μl of modified phosphate-buffered saline (MPBS) Ringer's solution into the sub-retinal space (SRS), which separates the photoreceptor outer segments and the apical membrane of the RPE. In the control portion of each experiment (at 0-70 minutes after creation of the retinal detachment), the rate of change of bleb volume was measured. The control period of “constant” volume was defined by JV≦2 μl hr cm over at least 40 minutes. Any control injections that exceeded this threshold rate were rejected from subsequent analysis.
IFNγ was dissolved in MPBS, mixed with Celluvisc® solution (1:1) and applied as eye-drops (0.4 mL). Optical coherence tomography (OCT) imaging (Institute of Applied Physics, Russian Academy of Science, Nizhniy Novgorod, Russia) was used to measure the time course of the detachment volume change.
A previously tested in vivo rodent model of retinal detachment was used to measure the effect of IFNγ on re-absorption following retinal detachment, as described in Example 11 and in Maminishkis, A., et al., Invest Ophthalmol Vis Sci, 2002, 43, 3555-3566, incorporated herein by reference in its entirety. Initial detachment was created by injecting approximately 1 μl of osmotically-balanced, modified phosphate-buffered saline (MPBS) Ringer's solution into the extracellular space, i.e. the sub-retinal space (SRS). After stabilization of the detachment, IFNγ (40 μl of 100 ng/ml) was added to the anterior surface of the eye via eye drops (Celluvisc®). A series of 3D OCT images were recorded at different time points.

hfRPE monolayers [4] = test: electrophysiology of hfRPE monolayers (TEP, RT, VA, VB, RA/RB); type: cell-based, human
Excerpt: Equivalent circuit analysis and electrophysiological methods have been previously described in Quinn, R. H., et al., Invest Ophthalmol Vis Sci, 1992, 33, 3513-3527; Joseph D. P., et al., J Physiol, 1991, 435, 439-463; and Maminishkis, A., et al., 2006, Ophthalmol Vis Sci, 47, 3612-3624each incorporated herein by reference in its entirety.
Briefly, confluent monolayers of cultured hfRPE were mounted on a nylon mesh support and clamped into a modified Üssing chamber that allowed the rapid exchange of Ringer's solution (≈10 chamber volumes per minute) and the measurement of fast electrical changes in seconds. The electrical connections to the apical and basal chambers were made with Ringer-agar bridges in series with calomel electrodes. Intracellular potentials were recorded with conventional microelectrodes, back-filled with 150 mM KCl, with resistances of 80 to 200 Ma The apical and basolateral membrane potentials (VA and VB) are calculated as the voltage differences between the intracellular microelectrode and the apical and basal bath electrodes, respectively. The resistances of the apical and basolateral membranes were designated RA and RB, respectively, and the transepithelial potential (TEP=VB-VA) is the voltage difference between the apical and basal bath electrodes. Epithelial resistance parameters were obtained by passing 4-μA bipolar current pulses (i) using Ag—AgCl electrodes, one located in the apical chamber and the other located in the basal chamber. The total transepithelial resistance (Rt) is calculated from the current-induced changes in TEP (Rt=ΔTEP/i). The apparent membrane resistance ratio (RA/RB) is calculated from the ratio of change in VA to change in VB (RA/RB=ΔVA/ΔVB).
The control Ringer's solution for measurements of TEP and Rt in culture hfRPE contained 116 mM NaCl, 5 mM KCl, 26.2 mM NaHCO3, 1 mM NaH2PO4, 1 mM Mg Cl2, 1.8 mM CaCl2, 10 mM glucose, and 2 mM Taurine. The osmolarity of control Ringer's solution was 295 mOsm. The solutions were maintained at 35° C. and a pH of 7.4, and were bubbled with 10% O2, 5% CO2 and 85% N2. 8-Bromo-cAMP (or Dibutyryl cAMP), 8-Br-cGMP, and forskolin were obtained from Sigma-Aldrich.

[5] = CFTRinh−172 basal bath after IFNγ

Molecule: TNFα
- effect on hfRPE cell migration (hfRPE cells [1]): no significant effect
- effect on hfRPE proliferation (BrdU incorporation) (hfRPE cells [2]): weak stimulatory effect
- concentration at which the stimulatory effect reached statistical significance (hfRPE cells [2]; P <0.05): 80 ng/mL
- effect on hfCHC (human fetal choroidal) cell proliferation (hfCHC cells): significantly stimulated

Molecule: COc1cc2ncnc(Nc3ccc(O)c(Br)c3)c2cc1OC [JAK3, reference compound]
- effect on the IFNγ effect on hfRPE proliferation (hfRPE cells [2]): not

Molecule: JAK inhibitor I
- effect on the IFNγ effect on hfRPE proliferation (hfRPE cells [2]): block
- effect on base level of fluid transport (JV) (hfRPE monolayers [3]; JAK inhibitor I 5 μM alone): no significant effect
- effect on IFNγ increase in JV (hfRPE monolayers [3]; JAK inhibitor I 5 μM, 0.5-1 hours prior to IFNγ): significantly blocked

Molecule: Nc1ncnc2c1nc(Br)n2C1OC2COP(O)(=S)OC2C1O (stereo not shown) [Rp-8-Br-cAMPS]
- reduction in IFNγ-induced absorption rate (rat RPE; PKA inhibitor alone injected into subretinal space, FIG. 23D): ~40%
- effect on IFNγ induced decrease in detachment volume (rat RPE; pre-injection of 50 μM PKA inhibitor alone): partially blocked
- effect on the effects of IFNγ on JV (hfRPE monolayers [3]): completely blocked
- effect on the effects of IFNγ on JV (hfRPE monolayers [3]; listed as Rp-8-Br-cAMPs): blocked
- effect on baseline JV (hfRPE monolayers [3]; Rp-8-Br-cAMPS 2 μM, approximately 40 minutes): no effect
- JV after Rp-8-Br-cAMPS (hfRPE monolayers [3]; six experiments, steady-state baseline 8.9±1.2): 10.4±2.0 μl·cm^−2·hr^−1

Molecule: IL-1β: inflammatory cytokine obtained from Peprotech; ICM component
- effect on hfRPE cell migration (hfRPE cells [1]): no significant effect
- effect on hfRPE proliferation (BrdU incorporation) (hfRPE cells [2]): no significant effect
- effect on hfCHC (human fetal choroidal) cell proliferation (hfCHC cells): significantly stimulated

Molecule: O=C(O)c1ccc(/C=C2\SC(=S)N(c3cccc(C(F)(F)F)c3)C2=O)cc1 [CFTRinh−172]
- effect on NOC-5 induced increase in Jv (hfRPE monolayers [3]; CFTR inhibitor 5 μM basal bath, NOC-5 250 μM, n=3): blocked
- effect on IFNγ-induced fluid transport after H-89 (hfRPE monolayers [3]; CFTR inhibitor added after H-89): no further effect
- effect on JV after P38 MAPK inhibitor (hfRPE monolayers [3]): further decrease
- effect on JV after P38 MAPK inhibitor (hfRPE monolayers [3]; listed as CFTR inhibitor): further decreased
- decrease of the IFNγ-induced JV increase (hfRPE monolayers [3]; CFTRinh−172 5 μM basal bath, FIG. 14E): ≈ 9.8 μl·cm^−2·hr^−1
- mean JV after inhibitor in IFNγ-treated hfRPE (hfRPE monolayers [3]; CFTRinh−172 5 μM, 11 experiments, from 16.6±1.2): 6.8±1.0 μl·cm^−2·hr^−1
- JV after inhibitor in 24 hour IFNγ-treated hfRPE (hfRPE monolayers [3]; CFTRinh−172 5 μM, from 15.1, FIG. 14F): 4.8 μl·cm^−2·hr^−1
- decrease in JV (hfRPE monolayers [3]; CFTRinh−172 added after IFNγ and basal DIDS, n=1): 12.6 μl·cm^−2·hr^−1
- baseline JV after inhibitor (hfRPE monolayers [3]; CFTRinh−172 basal bath, no IFNγ, baseline 12.5 ±3.1, n=5): 3.2 ±1.0 μl·cm^−2·hr^−1
- Jv after CFTR inhibitor in 8-Br-cGMP-treated hfRPE (hfRPE monolayers [3]; FIG. 21, from 19.5): 11.5 μl·cm^−2·hr^−1
- Jv after CFTR inhibitor in 8-Br-cGMP-treated hfRPE (hfRPE monolayers [3]; four experiments, from 15.8±1.6): 8.9±1.3 μl·cm^−2·hr^−1
- effect on cAMP-induced electrical changes (hfRPE monolayers [4]; CFTRinh−172): blocked
- effect on RA/RB (hfRPE monolayers [4]; [5]): slight decrease
- effect on RT (hfRPE monolayers [4]; [5]): increased
- effect on TEP (hfRPE monolayers [4]; [5]): decreased
- effect on both membrane potentials (hfRPE monolayers [4]; [5]): hyperpolarize

Molecule: N#C/C(=C\c1ccc(O)c(O)c1)C(=O)NCc1ccccc1 [AG490, reference compound]
- effect on the IFNγ effect on hfRPE proliferation (hfRPE cells [2]): block
